Measured values: ChEMBL document CHEMBL1201862, “PubChem BioAssay data set” (2004)
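1) Cells in 96-well plates. 2) Compound, 48 h, 5 concentrations. 3) Linear interpolation between surrounding doses. 4) Unreached endpoint = highest concentration. GI50 = concentration required for 50% inhibition of growth.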 Activity calls are given as the source filed them. Cut-off read from the data, not from the text of the source: active = GI50 up to about 1.1 µM and inactive = higher.

What was measured:
Experiment in all cases: NCI tumour cell line growth inhibition, 48 h
A498 = tested on: A498
A549 = tested on: A549
CAKI-1 = tested on: CAKI-1
COLO 205 = tested on: COLO 205
EKVX = tested on: EKVX
HCT-116 = tested on: HCT-116
HOP-92 = tested on: HOP-92
HT-29 = tested on: HT-29
KM12 = tested on: KM12
M14 = tested on: M14
MDA-MB-231 = tested on: MDA-MB-231
MOLT-4 = tested on: MOLT-4
NCI/ADR-RES = tested on: NCI/ADR-RES
OVCAR-8 = tested on: OVCAR-8
SK-MEL-2 = tested on: SK-MEL-2
SN12C = tested on: SN12C
SNB-19 = tested on: SNB-19
SR = tested on: SR
TK-10 = tested on: TK-10
UO-31 = tested on: UO-31

Measured: GI50

O=C1C(NCCc2ccc(O)c(O)c2)=CC(=O)c2ncccc21
inactive: A498 20.7 µM | A549 14.9 µM | CAKI-1 5.52 µM | COLO 205 14.7 µM | EKVX 17.6 µM | HCT-116 12.2 µM | HOP-92 20.1 µM | HT-29 30.3 µM | KM12 13.2 µM | M14 14.7 µM | MDA-MB-231 5.14 µM | MOLT-4 8.51 µM | NCI/ADR-RES 14.4 µM | OVCAR-8 13.4 µM | SK-MEL-2 3.1 µM | SN12C 10.1 µM | SNB-19 18.5 µM | SR 9.98 µM | TK-10 36.2 µM | UO-31 11.4 µM

O=S1(=O)C(c2ccccc2)C(N2CCCCC2)C1C1CC2c3ccccc3C1c1ccccc12 (stereo not given)
inactive: A498 > 100 µM | A549 8.17 µM | CAKI-1 > 100 µM | COLO 205 14.8 µM | EKVX > 100 µM | HCT-116 5.69 µM | HOP-92 8.81 µM | HT-29 10.6 µM | KM12 23.3 µM | M14 > 100 µM | MDA-MB-231 > 100 µM | MOLT-4 5.47 µM | NCI/ADR-RES > 28 µM | OVCAR-8 > 100 µM | SK-MEL-2 > 100 µM | SN12C > 35.8 µM | SNB-19 > 100 µM | SR 5.93 µM | TK-10 > 100 µM | UO-31 > 54.7 µM

Cc1ccc(C2(O)CS/C(=N\C34CC5CC(CC(C5)C3)C4)N2C(P(=O)(O)O)P(=O)(O)O)cc1 (stereo not given)
inactive: A498 82.8 µM | A549 76.7 µM | CAKI-1 > 100 µM | COLO 205 > 100 µM | EKVX > 100 µM | HCT-116 37.1 µM | HOP-92 > 100 µM | HT-29 > 100 µM | KM12 > 100 µM | M14 > 100 µM | MDA-MB-231 56.6 µM | MOLT-4 37.9 µM | NCI/ADR-RES 24.2 µM | OVCAR-8 86.7 µM | SK-MEL-2 27.5 µM | SN12C 89.3 µM | SNB-19 82.2 µM | SR 29.2 µM | TK-10 > 100 µM | UO-31 > 100 µM

O=C1c2cccnc2S(=O)(=O)N1c1ccc([N+](=O)[O-])cc1
inactive: A498 > 100 µM | A549 > 100 µM | CAKI-1 > 100 µM | COLO 205 > 100 µM | EKVX > 100 µM | HCT-116 > 100 µM | HOP-92 > 100 µM | HT-29 > 100 µM | KM12 > 100 µM | M14 > 100 µM | MDA-MB-231 > 100 µM | MOLT-4 > 100 µM | NCI/ADR-RES > 100 µM | OVCAR-8 > 100 µM | SK-MEL-2 > 100 µM | SN12C > 100 µM | SNB-19 > 100 µM | SR 29.9 µM | TK-10 > 100 µM | UO-31 > 100 µM

O=C(O)CSC(CC(=O)c1ccc(Cl)cc1)c1ccc(Cl)cc1 (stereo not given)
inactive: A498 41.6 µM | A549 38.4 µM | CAKI-1 35.3 µM | COLO 205 49.8 µM | EKVX 41 µM | HCT-116 5.77 µM | HOP-92 25.8 µM | HT-29 22.1 µM | KM12 8.07 µM | M14 42.1 µM | MDA-MB-231 42 µM | MOLT-4 6.81 µM | NCI/ADR-RES 38.7 µM | OVCAR-8 22.3 µM | SK-MEL-2 50.8 µM | SN12C 43 µM | SNB-19 42 µM | SR 2.36 µM | TK-10 21.4 µM | UO-31 34.6 µM

O=C(NCCSSCCNC(=O)/C(Cc1ccc(O)c(Br)c1)=N/O)/C(Cc1ccc(O)c(Br)c1)=N/O [PSAMMAPLIN A]
active: MOLT-4 0.402 µM | SK-MEL-2 1.1 µM | SR 0.38 µM
inactive: A498 2.9 µM | A549 1.44 µM | CAKI-1 1.47 µM | COLO 205 1.64 µM | EKVX 4.49 µM | HCT-116 1.39 µM | HOP-92 4.01 µM | HT-29 1.35 µM | KM12 1.47 µM | M14 1.32 µM | MDA-MB-231 1.78 µM | NCI/ADR-RES 1.29 µM | OVCAR-8 1.52 µM | SN12C 1.43 µM | SNB-19 2.08 µM | TK-10 2.92 µM | UO-31 1.74 µM

Cc1cc(N(CCC#N)CCC#N)ccc1C(=N/NC(=O)c1cc(Cl)ccc1O)/N=N/c1cccc(Cl)c1
inactive: A498 28.4 µM | A549 17.1 µM | CAKI-1 17.9 µM | COLO 205 5.96 µM | EKVX 14.4 µM | HCT-116 12.2 µM | HOP-92 11.8 µM | HT-29 16.1 µM | KM12 11.2 µM | M14 15.5 µM | MDA-MB-231 15.7 µM | MOLT-4 4.81 µM | NCI/ADR-RES 16.3 µM | OVCAR-8 12.1 µM | SK-MEL-2 10.8 µM | SN12C 19.1 µM | SNB-19 22.9 µM | SR 6.04 µM | TK-10 16.5 µM | UO-31 18.9 µM
